Test results as given in patent US5416081A, “Cephalosporin compounds” (Lucky Limited, priority 1992, dated 1995).
≈ marks a conversion by molar mass, not a printed value. Where two headings read alike, the source gives them in different places.

Tests used:
Assay type in all cases: cell-based
[1] = system: S. aureus/6538pA; assay: MIC against standard strain by two-fold agar dilution, S. aureus/6538pA; conditions: Staphylococcus aureus
Experimental: (§1) These MIC values were taken by employing a two-fold dilution method: that is, two-fold serial dilutions of each of the test compounds were made and dispersed in a Muller-Hinton agar medium; 2 μl of the standard test strain which had the 10^7 CFU(Colony Forming Unit) per ml was inoculated on the medium; and these were incubated at 37° C. for 20 hours.

[2] = system: S. aureus/giorigio; assay: MIC against standard strain by two-fold agar dilution, S. aureus/giorigio; conditions: Staphylococcus aureus
Experimental: as §1

[3] = system: S. aureus/77; assay: MIC against standard strain by two-fold agar dilution, S. aureus/77; conditions: Staphylococcus aureus
Experimental: as §1

[4] = system: E. coli/10536; assay: MIC against standard strain by two-fold agar dilution, E. coli/10536; conditions: Escherichia coli
Experimental: as §1

[5] = system: E. coli/3190Y; assay: MIC against standard strain by two-fold agar dilution, E. coli/3190Y; conditions: Escherichia coli
Experimental: as §1

[6] = system: E. coli TEM1/1193E; assay: MIC against standard strain by two-fold agar dilution, E. coli TEM1/1193E; conditions: Escherichia coli, 20 h
Experimental: as §1

[7] = system: E. coli TEM5/3739E; assay: MIC against standard strain by two-fold agar dilution, E. coli TEM5/3739E; conditions: Escherichia coli, 20 h
Experimental: as §1

[8] = system: E. coli TEM9/2639E; assay: MIC against standard strain by two-fold agar dilution, E. coli TEM9/2639E; conditions: Escherichia coli, 20 h
Experimental: as §1

[9] = system: P. aeruginosa/1912E; assay: MIC against standard strain by two-fold agar dilution, P. aeruginosa/1912E; conditions: Pseudomonas aeruginosa
Experimental: as §1

[10] = system: P. aeruginosa/10145; assay: MIC against standard strain by two-fold agar dilution, P. aeruginosa/10145; conditions: Pseudomonas aeruginosa
Experimental: as §1

[11] = system: P. aeruginosa/6065Y; assay: MIC against standard strain by two-fold agar dilution, P. aeruginosa/6065Y; conditions: Pseudomonas aeruginosa
Experimental: as §1

[12] = system: A. calcoaceticus /15473A; assay: MIC against standard strain by two-fold agar dilution, A. calcoaceticus /15473A; conditions: Acinetobacter calcoaceticus
Experimental: as §1

[13] = system: E. cloacae/1194E; assay: MIC against standard strain by two-fold agar dilution, E. cloacae/1194E; conditions: Enterobacter cloacae
Experimental: as §1

[14] = system: K. aerogenes/1776E; assay: MIC against standard strain by two-fold agar dilution, K. aerogenes/1776E; conditions: Klebsiella aerogenes
Experimental: as §1

[15] = system: S. marcescens/1826E; assay: MIC against standard strain by two-fold agar dilution, S. marcescens/1826E; conditions: Serratia marcescens
Experimental: as §1

[16] = system: S. typhimunium/14028A; assay: MIC against standard strain by two-fold agar dilution, S. typhimunium/14028A
Experimental: as §1

[17] = S. aureus/77, Muller-Hinton agar, 37° C., 20 hours, read-out: MIC
[18] = E. coli/3190Y, Muller-Hinton agar, 37° C., 20 hours, read-out: MIC
[19] = P. aeruginosa/1912E, Muller-Hinton agar, 37° C., 20 hours, read-out: MIC
[20] = P. aeruginosa/10145, Muller-Hinton agar, 37° C., 20 hours, read-out: MIC
[21] = P. aeruginosa/6065Y, Muller-Hinton agar, 37° C., 20 hours, read-out: MIC
[22] = A. calcoaceticus /15473A, Muller-Hinton agar, 37° C., 20 hours, read-out: MIC
[23] = E. cloacae/1194E, Muller-Hinton agar, 37° C., 20 hours, read-out: MIC
[24] = K. aerogenes/1776E, Muller-Hinton agar, 37° C., 20 hours, read-out: MIC
[25] = S. marcescens/1826E, Muller-Hinton agar, 37° C., 20 hours, read-out: MIC
[26] = S. typhimunium/14028A, Muller-Hinton agar, 37° C., 20 hours, read-out: MIC
[27] = S. aureus/6538pA, Muller-Hinton agar, 37° C., 20 hours, read-out: MIC
[28] = S. aureus/giorigio, Muller-Hinton agar, 37° C., 20 hours, read-out: MIC
[29] = E. coli/10536, Muller-Hinton agar, 37° C., 20 hours, read-out: MIC

Structure (SMILES)	MIC ([1]; 20 h) [mg/L]	MIC [3, 17] [mg/L]	MIC ([4]; 20 h) [mg/L]	MIC [5, 18] [mg/L]	MIC [6] [mg/L]	MIC [7] [mg/L]	MIC [8] [mg/L]	MIC [9, 19] [mg/L]	MIC [10, 20] [mg/L]	MIC [11, 21] [mg/L]	MIC [12, 22] [mg/L]	MIC [13, 23] [mg/L]	MIC [14, 24] [mg/L]	MIC [15, 25] [mg/L]	MIC [16, 26] [mg/L]	MIC [1, 27] [mg/L]	MIC [2, 28] [mg/L]	MIC [4, 29] [mg/L]	further results
CC(C)(O/N=C(\C(=O)NC1C(=O)N2C(C(=O)[O-])=C(CSc3nc(N)c4c([n+]3N)CCC4)CSC12)c1csc(N)n1)C(=O)O (centres unmarked) [Compound I-1, 7-[(Z)-2-(2-aminothiazol-4-yl)-2-(2-carboxyprop-2-oxyimino)acetamido]-3-(1,4-diamino-1,5,6,7-tetrahydro-cyclopentapyrimidinium-2-yl)thiomethyl-3-cephem-4-carboxylate]	2 (≈ 3.08 µM)	4 (≈ 6.16 µM)	0.063 (≈ 0.097 µM)	0.016 (≈ 0.0246 µM)	0.063 (≈ 0.097 µM)	0.25 (≈ 0.385 µM)	2 (≈ 3.08 µM)	0.5 (≈ 0.77 µM)	1 (≈ 1.54 µM)	4 (≈ 6.16 µM)	2 (≈ 3.08 µM)	4 (≈ 6.16 µM)	0.13 (≈ 0.2 µM)	0.25 (≈ 0.385 µM)	0.13 (≈ 0.2 µM)				MIC ([2]; 20 h): 1 mg/L (≈ 1.54 µM)
C[n+]1c(SCC2=C(C(=O)[O-])N3C(=O)C(NC(=O)/C(=N\OC(C)(C)C(=O)O)c4csc(N)n4)C3SC2)nc(N)c2c1CCC2 (centres unmarked) [Compound I-2, 7-[(Z)-2-(2-aminothiazol-4-yl)-2-(2-carboxyprop-2-oxyimino)acetamido]-3-(4-amino-1-methyl-1,5,6,7-tetrahydro-cyclopentapyrimidinium-2-yl)thiomethyl-3-cephem-4-carboxylate]				0.063 (≈ 0.0971 µM)	0.13 (≈ 0.2 µM)	0.5 (≈ 0.771 µM)	2 (≈ 3.08 µM)	0.5 (≈ 0.771 µM)	1 (≈ 1.54 µM)	4 (≈ 6.17 µM)	1 (≈ 1.54 µM)	4 (≈ 6.17 µM)	0.13 (≈ 0.2 µM)	0.5 (≈ 0.771 µM)	0.25 (≈ 0.385 µM)	2 (≈ 3.08 µM)	1 (≈ 1.54 µM)	0.13 (≈ 0.2 µM)	MIC ([3]; 20 h): 8 mg/L (≈ 12.3 µM)
Nc1nc(/C(=N/OCC(=O)O)C(=O)NC2C(=O)N3C(C(=O)[O-])=C(CSc4nc(N)c5c([n+]4N)CCC5)CSC23)cs1 (centres unmarked) [Compound I-8, 7-[(Z)-2-(2-aminothiazol-4-yl)-2-(1-carboxymeth-1-oxyimino)acetamido]-3-(1,4-diamino-1,5,6,7-tetrahydro-cyclopentapyrimidinium-2-yl)thiomethyl-3-cephem-4-carboxylate]		4 (≈ 6.43 µM)		0.063 (≈ 0.101 µM)	0.28 (≈ 0.45 µM)	2 (≈ 3.22 µM)	2 (≈ 3.22 µM)	1 (≈ 1.61 µM)	1 (≈ 1.61 µM)	4 (≈ 6.43 µM)	4 (≈ 6.43 µM)	8 (≈ 12.9 µM)	0.25 (≈ 0.402 µM)	0.13 (≈ 0.209 µM)	0.25 (≈ 0.402 µM)	2 (≈ 3.22 µM)	2 (≈ 3.22 µM)	0.016 (≈ 0.0257 µM)	
CO/N=C(\C(=O)NC1C(=O)N2C(C(=O)[O-])=C(CSc3nc(N)c4c([n+]3N)CCC4)CSC12)c1csc(N)n1 (centres unmarked) [Compound I-10, 7-[(Z)-2-(2-aminothiazol-4-yl)-2-(methoxyimino)acetamido]-3-(1,4-diamino-1,5,6,7-tetrahydro-cyclopentapyrimidinium-2-yl)thiomethyl-3-cephem-4-carboxylate]	0.25 (≈ 0.433 µM)	0.13 (≈ 0.225 µM)		0.016 (≈ 0.0277 µM)	0.016 (≈ 0.0277 µM)	0.25 (≈ 0.433 µM)	0.5 (≈ 0.866 µM)	2 (≈ 3.46 µM)	4 (≈ 6.92 µM)	16 (≈ 27.7 µM)	4 (≈ 6.92 µM)	16 (≈ 27.7 µM)	0.5 (≈ 0.866 µM)	0.25 (≈ 0.433 µM)	0.25 (≈ 0.433 µM)			0.016 (≈ 0.0277 µM)	
Nc1nc(/C(=N/OC2(C(=O)O)CCCC2)C(=O)NC2C(=O)N3C(C(=O)[O-])=C(CSc4nc(N)c5c([n+]4N)CCC5)CSC23)cs1 (centres unmarked) [Compound I-11, 7-[(Z)-2-(2-aminothiazol-4-yl)-2-(1-carboxycyclopent-1-oxyimino)acetamido]-3-(1,4-diamino-1,5,6,7-tetrahydro-cyclopentapyrimidinium-2-yl)thiomethyl-3-cephem-4-carboxylate]		16 (≈ 23.7 µM)		≤ 0.008	0.13 (≈ 0.192 µM)	0.25 (≈ 0.37 µM)	2 (≈ 2.96 µM)	0.5 (≈ 0.74 µM)	1 (≈ 1.48 µM)	8 (≈ 11.8 µM)	1 (≈ 1.48 µM)	4 (≈ 5.92 µM)	0.13 (≈ 0.192 µM)	0.25 (≈ 0.37 µM)	0.25 (≈ 0.37 µM)	2 (≈ 2.96 µM)	1 (≈ 1.48 µM)	0.016 (≈ 0.0237 µM)	
C[n+]1c(SCC2=C(C(=O)[O-])N3C(=O)C(NC(=O)/C(=N\OC4(C(=O)O)CCCC4)c4csc(N)n4)C3SC2)nc(N)c2c1CCC2 (centres unmarked) [Compound I-12, 7-[(Z)-2-(2-aminothiazol-4-yl}-2-(1-carboxycyclopent-1-oxyimino)acetamido]-3-(4-amino-1-methyl-1,5,6,7-tetrahydro-cyclopenta-pyrimidinium-2-yl)thiomethyl-3-cephem-4-carboxylate]		8 (≈ 11.9 µM)		0.063 (≈ 0.0934 µM)	0.13 (≈ 0.193 µM)	0.5 (≈ 0.741 µM)	4 (≈ 5.93 µM)	1 (≈ 1.48 µM)	2 (≈ 2.96 µM)	16 (≈ 23.7 µM)	2 (≈ 2.96 µM)	8 (≈ 11.9 µM)	0.13 (≈ 0.193 µM)	0.25 (≈ 0.37 µM)	0.25 (≈ 0.37 µM)	2 (≈ 2.96 µM)	2 (≈ 2.96 µM)	0.016 (≈ 0.0237 µM)	
C[C@H](O/N=C(\C(=O)NC1C(=O)N2C(C(=O)[O-])=C(CSc3nc(N)c4c([n+]3N)CCC4)CSC12)c1csc(N)n1)C(=O)O (stereo partly drawn) [I-5(S), 7-[(Z)-2-(2-aminothiazol-4-yl)-2-((S)-1-carboxyeth-1-oxyimino)acetamido]-3-(1,4-diamino-1,5,6,7-tetrahydro-cyclopentapyrimidinium-2-yl)thiomethyl-3-cephem-4-carboxylate]	4 (≈ 6.29 µM)	8 (≈ 12.6 µM)	0.016 (≈ 0.0252 µM)		0.031 (≈ 0.0488 µM)	2 (≈ 3.15 µM)	8 (≈ 12.6 µM)	1 (≈ 1.57 µM)	2 (≈ 3.15 µM)	8 (≈ 12.6 µM)	2 (≈ 3.15 µM)	8 (≈ 12.6 µM)	0.13 (≈ 0.204 µM)	0.25 (≈ 0.393 µM)	0.25 (≈ 0.393 µM)		2 (≈ 3.15 µM)		MIC ([5]; 20 h): ≤ 0.008 mg/L
C[C@H](O/N=C(\C(=O)NC1C(=O)N2C(C(=O)[O-])=C(CSc3nc(N)c4c([n+]3C)CCC4)CSC12)c1csc(N)n1)C(=O)O (stereo partly drawn) [I-6(S)]		4 (≈ 6.3 µM)		0.063 (≈ 0.0993 µM)	0.13 (≈ 0.205 µM)	1 (≈ 1.58 µM)	4 (≈ 6.3 µM)	1 (≈ 1.58 µM)	2 (≈ 3.15 µM)	4 (≈ 6.3 µM)	4 (≈ 6.3 µM)	4 (≈ 6.3 µM)	0.13 (≈ 0.205 µM)	0.25 (≈ 0.394 µM)	0.25 (≈ 0.394 µM)	4 (≈ 6.3 µM)	2 (≈ 3.15 µM)	0.016 (≈ 0.0252 µM)	
CC(C)(O/N=C(\C(=O)N[C@@H]1C(=O)N2C(C(=O)[O-])=C(C[n+]3ccccc3)CS[C@H]12)c1csc(N)n1)C(=O)O [ceftazidime, Ceftazidime, reference compound]	16 (≈ 29.3 µM)		0.063 (≈ 0.115 µM)		0.28 (≈ 0.512 µM)	8 (≈ 14.6 µM)	> 128												MIC ([2]; 20 h): 4 mg/L (≈ 7.32 µM); MIC ([3]; 20 h): 32 mg/L (≈ 58.5 µM); MIC ([5]; 20 h): 0.031 mg/L (≈ 0.0567 µM); MIC ([9]; 20 h): 1 mg/L (≈ 1.83 µM); MIC ([10]; 20 h): 2 mg/L (≈ 3.66 µM); MIC ([11]; 20 h): 32 mg/L (≈ 58.5 µM); MIC ([12]; 20 h): 2 mg/L (≈ 3.66 µM); MIC ([13]; 20 h): 64 mg/L (≈ 117 µM); MIC ([14]; 20 h): 0.25 mg/L (≈ 0.457 µM); MIC ([15]; 20 h): 0.25 mg/L (≈ 0.457 µM); MIC ([16]; 20 h): 0.25 mg/L (≈ 0.457 µM)
